Tests used:
HCV NS5B = molecular target: T1, HCV NS5B (Hepatitis C virus genotype 1b, UniProt Q9WMX2); test: HCV NS5B RdRp enzyme assay (preincubation protocol); format: biochemical; details: Table 1a, read-out: IC50*
T1 construct: The protein was expressed with an 18 amino acid C-terminal truncation to enhance the solubility; made in house; host or cells: E. coli BL21 (DE3), pET21a
Procedure, shortened: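 Preincubation format: enzyme (14 nM, genotype 1b, 18-residue C-terminal truncation) meets diluted compound first; reaction started with bead-bound biotinylated dT12 primer, polyA template 0.2 nM and 0.29 μM 3H-UTP. Run 4 h, 30 °C in Hepes pH 7.5; scintillation proximity signal; IC50 fitted from seven inhibitor levels.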

HCV replicon = HCV replicon FRET assay; format: cell-based; details: Hepatitis C virus, Table 1a; FRET assay; read-out: EC50*
Procedure, shortened: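 HCV replicon cells, with or without Renilla luciferase reporter, incubated with titrated compounds at 37 °C; Alamar blue read for cytotoxicity. NS3 protease activity read from lysates with 20 μM EDANS/DABCYL FRET peptide (340/490 nm, kinetic), or by Dual-Glo luciferase. Background from highest protease-inhibitor wells; EC50 = 50% signal reduction.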

T1 sequence (Q9WMX2 2420-2992): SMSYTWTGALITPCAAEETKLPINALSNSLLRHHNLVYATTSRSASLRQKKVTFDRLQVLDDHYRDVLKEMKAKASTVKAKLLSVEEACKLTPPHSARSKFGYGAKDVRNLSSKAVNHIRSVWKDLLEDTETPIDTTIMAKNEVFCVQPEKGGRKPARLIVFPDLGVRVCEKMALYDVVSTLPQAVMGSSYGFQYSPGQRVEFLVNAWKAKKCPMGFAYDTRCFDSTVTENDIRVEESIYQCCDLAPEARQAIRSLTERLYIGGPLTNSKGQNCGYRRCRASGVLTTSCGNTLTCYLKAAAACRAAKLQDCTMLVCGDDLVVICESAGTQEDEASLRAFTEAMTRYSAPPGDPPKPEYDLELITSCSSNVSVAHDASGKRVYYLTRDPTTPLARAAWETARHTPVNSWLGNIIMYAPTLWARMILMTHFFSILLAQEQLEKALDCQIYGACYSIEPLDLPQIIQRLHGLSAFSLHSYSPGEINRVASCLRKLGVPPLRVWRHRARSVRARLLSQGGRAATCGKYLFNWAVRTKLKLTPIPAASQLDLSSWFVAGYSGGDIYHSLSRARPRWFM

Row | Compound | IC50 (HCV NS5B) | EC50 (HCV replicon)
1 | COc1ccc2c(c1)CC(C(=O)NCc1cc(C)nn1C)Cn1c-2c(C2CCCCC2)c2ccc(C(=O)NS(=O)(=O)N(C)C)cc21 (stereo not shown) | 10 to 1000 nM | 30 to 1000 nM
2 | COc1ccc2c(c1)CC(C(=O)NCc1cn(C)cn1)Cn1c-2c(C2CCCCC2)c2ccc(C(=O)NS(=O)(=O)N(C)C)cc21 (stereo not shown) | 10 to 1000 nM | 30 to 1000 nM
3 | COc1ccc2c(c1)CC(C(=O)N(C)CC(=O)N1CCOCC1)Cn1c-2c(C2CCCCC2)c2ccc(C(=O)NS(=O)(=O)N(C)C)cc21 (stereo not shown) | < 20 nM | 30 to 1000 nM
4 | COC(=O)CCC(=O)CNC(=O)C1=Cc2cc(OC)ccc2-c2c(C3CCCCC3)c3ccc(C(=O)OC)cc3n2C1 | 10 to 1000 nM | 30 to 1000 nM
5 | COc1ccc2c(c1)CC(NC(=O)N1C[C@@H](C)O[C@@H](C)C1)Cn1c-2c(C2CCCCC2)c2ccc(C(=O)NS(=O)(=O)N(C)C)cc21 (stereo partly shown) | 10 to 1000 nM | 30 to 1000 nM
6 | COC(=O)c1ccc2c(C3CCCCC3)c3n(c2c1)CC(C(=O)NC1CCOCC1)=Cc1cc(OC)ccc1-3 | 10 to 1000 nM | 30 to 1000 nM
7 | COc1ccc2c(c1)C=C(C(=O)N(C)CCN(C)C(C)=O)Cn1c-2c(C2CCCCC2)c2ccc(C(=O)NS(=O)(=O)N(C)C)cc21 | 10 to 1000 nM | 30 to 1000 nM
8 | COc1ccc2c(c1)C=C(C(=O)N1CC(OC)C1)Cn1c-2c(C2CCCCC2)c2ccc(C(=O)NS(=O)(=O)N(C)C)cc21 | < 20 nM | 30 to 1000 nM
9 | COc1ccc2c(c1)C=C(C(=O)N(C)CC(=O)N1CCC1)Cn1c-2c(C2CCCCC2)c2ccc(C(=O)NS(=O)(=O)N(C)C)cc21 | 10 to 1000 nM | 30 to 1000 nM
10 | CCN(C)C(=O)CN(C)C(=O)C1=Cc2cc(OC)ccc2-c2c(C3CCCCC3)c3ccc(C(=O)NS(=O)(=O)N(C)C)cc3n2C1 | 10 to 1000 nM | 30 to 1000 nM
11 | COc1ccc2c(c1)C=C(C(=O)N(C)CC(=O)N1CC(OC)C1)Cn1c-2c(C2CCCCC2)c2ccc(C(=O)NS(=O)(=O)N(C)C)cc21 | 10 to 1000 nM | 30 to 1000 nM
12 | COc1ccc2c(c1)CC(NC(=O)N1C[C@@H](C)N(C(C)=O)[C@@H](C)C1)Cn1c-2c(C2CCCCC2)c2ccc(C(=O)NS(=O)(=O)N(C)C)cc21 (stereo partly shown) | 10 to 1000 nM | 30 to 1000 nM
13 | COc1ccc2c(c1)CC(NC(=O)N(C)CC(=O)N1CCOCC1)Cn1c-2c(C2CCCCC2)c2ccc(C(=O)NS(=O)(=O)N(C)C)cc21 (stereo not shown) | 10 to 1000 nM | 30 to 1000 nM
14 | COc1ccc2c(c1)CC(NC(=O)N1CCC(N3CCOCC3)CC1)Cn1c-2c(C2CCCCC2)c2ccc(C(=O)NS(=O)(=O)N(C)C)cc21 (stereo not shown) | 10 to 1000 nM | 30 to 1000 nM
15 | COc1ccc2c(c1)CC(NC(=O)N1CCOC(CN(C)C)C1)Cn1c-2c(C2CCCCC2)c2ccc(C(=O)NS(=O)(=O)N(C)C)cc21 (stereo not shown) | 10 to 1000 nM | 30 to 1000 nM
16 | COc1ccc2c(c1)CC(NC(=O)N1CCOC(CN3CCCC3)C1)Cn1c-2c(C2CCCCC2)c2ccc(C(=O)NS(=O)(=O)N(C)C)cc21 (stereo not shown) | 10 to 1000 nM | 30 to 1000 nM
17 | COc1ccc2c(c1)CC(NC(=O)N1CCN(C(N)=O)CC1)Cn1c-2c(C2CCCCC2)c2ccc(C(=O)NS(=O)(=O)N(C)C)cc21 (stereo not shown) | 10 to 1000 nM | 30 to 1000 nM
18 | COc1ccc2c(c1)CC(NC(=O)N1CCN(CC(=O)NC(C)C)CC1)Cn1c-2c(C2CCCCC2)c2ccc(C(=O)NS(=O)(=O)N(C)C)cc21 (stereo not shown) | 10 to 1000 nM | 30 to 1000 nM
19 | CCN(C(C)=O)C1CCN(C(=O)NC2Cc3cc(OC)ccc3-c3c(C4CCCCC4)c4ccc(C(=O)NS(=O)(=O)N(C)C)cc4n3C2)C1 (stereo not shown) | 10 to 1000 nM | 30 to 1000 nM
20 | COc1ccc2c(c1)CC(NC(=O)N1CCS(=O)(=O)CC1)Cn1c-2c(C2CCCCC2)c2ccc(C(=O)NS(=O)(=O)N(C)C)cc21 (stereo not shown) | 10 to 1000 nM | 30 to 1000 nM
21 | COc1ccc2c(c1)CC(NC(=O)N1C[C@@H]3C[C@H]1CO3)Cn1c-2c(C2CCCCC2)c2ccc(C(=O)NS(=O)(=O)N(C)C)cc21 (stereo partly shown) | 10 to 1000 nM | 30 to 1000 nM
22 | COc1ccc2c(c1)CC(NC(=O)NCCN1CCOCC1)Cn1c-2c(C2CCCCC2)c2ccc(C(=O)NS(=O)(=O)N(C)C)cc21 (stereo not shown) | 10 to 1000 nM | 30 to 1000 nM
23 | COc1ccc2c(c1)CC(NC(=O)N1CCC(N3CCCC3)CC1)Cn1c-2c(C2CCCCC2)c2ccc(C(=O)NS(=O)(=O)N(C)C)cc21 (stereo not shown) | 10 to 1000 nM | 30 to 1000 nM
24 | COc1ccc2c(c1)CC(NC(=O)N1CCN(S(C)(=O)=O)CC1)Cn1c-2c(C2CCCCC2)c2ccc(C(=O)NS(=O)(=O)N(C)C)cc21 (stereo not shown) | 10 to 1000 nM | 30 to 1000 nM
25 | COc1ccc2c(c1)CC(NC(=O)N1CCN(C(C)=O)CC1)Cn1c-2c(C2CCCCC2)c2ccc(C(=O)NS(=O)(=O)N(C)C)cc21 (stereo not shown) | 10 to 1000 nM | 30 to 1000 nM
26 | COc1ccc2c(c1)CC(NC(=O)N(C)CC(=O)N(C)C)Cn1c-2c(C2CCCCC2)c2ccc(C(=O)NS(=O)(=O)N(C)C)cc21 (stereo not shown) | 10 to 1000 nM | 30 to 1000 nM

From patent US7473688B2, “Indolobenzazepine HCV NS5B inhibitors” (Bristol-Myers Squibb Company, priority 2005, dated 2009)
